# System: orthotopic LM2-4luc breast cancer xenografts
# Assay: orthotopic LM2-4luc xenografts, unresected: primary tumor and spontaneous metastasis
# Type: in vivo, human LM2-4luc cells in CB-17 SCID mice
# Details: for primary tumor growth: VT from 10DPI, SU 7 days from 17DPI, n = 8, volume or bioluminescence, Fig5A–C
# From the text: The first experiment involved VT and SU treatments in the presence of an unresected primary tumor (Fig5). At 10 days post-implantation (DPI), when primary tumors reached an average size of ∽175 mm^3, mice were randomized into groups and chronic VT therapy was initiated. At 17DPI, when tumors reached an average size (∽400 mm^3) where tumor debulking is typically required for long-term metastasis experiments, a 7-day anti-angiogenic SU treatment was initiated in lieu of surgical resection.
# In vivo experiments were performed in strict accordance with protocols approved by the Sunnybrook Research Institute Animal Care Committee, accredited by the Canadian Council of Animal Care. All surgical, imaging, and euthanasia procedures were performed under inhaled isoflurane anesthesia. Experimental metastasis models involved injections of 10^6 tumor cells, suspended in 200 μl serum-free DMEM, into the mouse tail vein. LM2-4^luc implantations were performed on 6 to 8-week-old female CB-17 SCID mice (Charles River Canada). HT29^luc implantations were performed on 19- to 20-week-old male and 11- to 12-week-old female YFP-SCID mice (bred in-house). SN12^luc implantations were performed on 9-week-old male YFP-SCID mice. Spontaneous metastasis models involved orthotopic implantations of 2 × 10^6 LM2-4^luc cells/50 μl serum-free DMEM in the right inguinal mammary fat pads of 6-week-old female CB-17 SCID mice.
# Sunitinib malate (SU), from Pfizer or LC Laboratories, and its vehicle were formulated as described before (Ebos et al, [2009]). SU was administered by oral gavage (PO), once daily, at a dose of 60 mg/kg mouse weight. Vasculotide (VT): VT synthesized at the Sunnybrook Research Institute (Toronto, ON, Canada) was used in experiments described in Fig2(A–D) and Supplementary Fig S5(A and B). VT synthesized by American Peptide (Sunnyvale, CA, USA) was used in experiments described in Fig5. VT synthesized by Bachem UK Ltd was used in experiments described in Figs1, 2(E–H), 3, 4, 6–9, Supplementary Figs S2, and S5(C and D). Lyophilized product was reconstituted in PBS to 500 μg/500 μl stock aliquots and stored at −80°C. As needed, stock aliquots were diluted with PBS to a 250 ng/50 μl working concentration and stored in 0.4–1 ml aliquots at −80°C. VT (at a standard dose of 250 ng/mouse) or its vehicle (PBS) was administered to mice by intraperitoneal (IP) injections every other day.
# 5. Bioluminescence imaging (BI) of tumor burden
# For in vivo BI: Mice were injected intraperitoneally with 150mg/kg luciferin (Promega) 10 minutes prior to and anesthetized with isofluorane just before luminescent pseudocolor imaging (uniform settings: CCD camera locked at -105 °C, exposure=60s, f/1, subject size=1.5cm, bin=8, FOV=23.2cm, full image correction) using the IVIS 200 Imaging System (Caliper/PerkinElmer). Using the Living Image software (v2.50.1, Xenogen), weekly images were analyzed under uniform color range on grayscale photographic overlay. Total fluxes (photons/sec) were quantified within consistent regions of interest and statistically compared ideally at a timepoint before any deaths have occurred.
# For ex vivo BI: Mice were sacrificed at 7 mins after luciferin injections, then organs of interest were dissected and individually placed within 24-well plates for imaging at 10 min post-luciferin injection.
# 6. Immunohistochemical (IHC) analysis of lung metastases
# Surgically dissected lungs were fixed in 4% paraformaldehyde (PFA) overnight and stored in 70% ethanol. Three paraffin-embedded cross-sections per lung, 5-μm thick, 60 μ m apart, were subjected to IHC staining using a serum-free protein block (Dako X0909), an anti-human vimentin antibody (clone V9, Invitrogen 18-0052; 1:100 in Dako S3022 diluent), the universal ‘LSAB+, HRP’ detection kit (Dako K0690), the DAB+ chromogen-substrate system (Dako K3467) and hematoxylin counterstain.
# Quantification procedure involved visual survey of entire tissue sections and tallying of DAB-stained […]
# [1] = 39DPI, SU 1wk with or without VT, Fig5F
Compound,incidence of lung metastases (ex vivo bioluminescent imaging) [1],incidence of lymph node metastases (ex vivo bioluminescent imaging) [1],"primary tumor burden by volume (SU 7-day, one-way ANOVA, Fig5B)","primary tumor burden by bioluminescent activity (SU 7-day, one-way ANOVA, Fig5C)",primary tumor growth,"incidence of lymph node metastases (ex vivo bioluminescent imaging) (32DPI, vehicle 2/8, Fig5F)","incidence of lung metastases (ex vivo bioluminescent imaging) (32DPI, vehicle 6/8, Fig5F)","mean thickness of the viable peripheral regions of primary tumors (H&E) (22 days of VT treatment, Fig5D)","mean thickness of the CAIX+ hypoxic edge of primary tumors (22 days of VT treatment, Fig5E)","lung metastatic nodule size distribution (human vimentin IHC) (VT monotherapy, P = 0.05–0.09, Fig5G)","anti-metastatic benefit of concurrent VT treatment by regional IHC analysis (VT with SU, Fig5G)","metastatic involvement in the lungs (EVBI) (VT-treated groups vs vehicle or SU monotherapy, Fig5F)"
"CCN(CC)CCNC(=O)c1c(C)[nH]c(/C=C2\C(=O)Nc3ccc(F)cc32)c1C [sunitinib, reference compound]",4/8,4/8,significantly lowered primary tumor burden,significantly lowered primary tumor burden,effectively stabilized primary tumor growth,–,–,–,–,–,–,–
"CHHHRHSF [Vasculotide, 4-armed maleimide-functionalized polyethylene glycol (PEG) backbone to link together four cysteine-capped T7 peptides, that is, CHHHRHSF]",–,–,–,–,did not alter the growth kinetics of primary tumors,1/8,2/8,did not alter the mean thickness of the viable peripheral regions,did not alter the mean thickness of the CAIX^+ hypoxic edge,delayed the seeding or progression of lung micrometastases,not detectable by regional IHC analysis,"trends of reduced incidences of metastatic involvement in the lungs, but no change in the lymph nodes"
